Measured values as given in US20190365776A1, “THERAPEUTIC AGENT FOR OCULAR FUNDUS DISEASE” (KYUSHU UNIVERSITY, NATIONAL UNIVERSITY CORPORATION, priority 2013, published 2019).

Tests used:
[1] = test system: VEGF-induced neovascularization; conditions: Non-Patent Documents 2 and 3; cited from earlier work
[2] = test system: model mice with hyperoxia-induced retinopathy; conditions: intravitreally administered; Non-Patent Document 6; cited from earlier work
diabetic model rats = conditions: intravitreally administered; Non-Patent Documents 4 and 5; cited from earlier work
[3] = test system: mice OIR (Oxygen-Induced Retinopathy) model; experiment: Mice OIR (oxygen-induced retinopathy) model, flat-mounted retina; assay type: in vivo, C57BL/6JJcl mice; conditions: 0.4% solution, ocular instillation 20 μL three times a day, day 12 to day 17 after birth, flat mount
Protocol: The effectiveness of (S)-(−)-1-(4-fluoro-5-isoquinolinesulfonyl)-2-methyl-1,4-homopiperazine (compound 1) in a mice OIR model commonly used as a model of ischemic retinopathy such as diabetic retinopathy was examined in the following manner. Compound 1 solutions: 0.4% solution, 0.8% solution (instillation volume: 20 μL) Fasudil solution: 0.4% solution (instillation volume: 20 μL) Test animals: C57BL/6JJcl mice (sex: male, 8 to 14 mice per group) C57BL/6JJcl mice born on the same day were reared in a 75%-oxygen environment from day 7 after birth, and were then transferred to a normal indoor environment on day 12 after birth to start administration by ocular instillation. Test groups were a saline instillation group (control), a 0.4% compound 1 solution instillation group, a 0.8% compound 1 solution instillation group, and a 0.4% fasudil solution instillation group, and saline, the compound 1 solution, or the fasudil solution was administered by ocular instillation three times a day. On day 17 after birth, ischemic retinal areas (non-perfused areas) and neovascular areas were quantified for evaluation by flat-mounting or fluorescein fundus angiography. More specifically, 1 g/kg of pentobarbital (Nembutal) was administered intraperitoneally for euthanasia under deep anesthesia, and then both eyeballs were excised and fixed with 4% paraformaldehyde (PFA) at 37° C. for 1 hour, and the corneal limbus was circumferentially incised to remove the cornea and iris from the eyeball. Then, after fixation with 4% PFA at 37° C. for 1 hour, the lens, sclera, and choroid were removed, and the eye cup including the retina was isolated. Further, the retina was fixed with 4% PFA at 37° C. for 3 hours, washed with PBS three times (15 min per wash, 37° C.), dehydrated (methanol 50% 100%, 10 min per methanol treatment, 37° C.), washed with PBS three times (15 min per wash, 37° C.), and blocked with Blocking Buffer (1% BSA, 0.5% Triton-X in PBS) for 60 minutes (37° C.). Then, the retina was treated with a primary antibody (0.7% FITC-conjugates Anti-lectin Ab in PBS, 4° C., overnight) and washed with PBS three times (15 min per wash, 37° C.). Then, 4 to 6 cuts were radially made in the eye cup, and the flat-mounted retina was covered with Crystal Mount. Then, the image of the flat-mounted retina was taken with a fluorescence microscope (BZ-9000, KEYENCE Corp, Osaka, Japan), and the proportion of the non-perfused area to the entire retina and the proportion of the neovascular area to the entire retina were calculated by the following formulas in NIH image J software. The thus obtained values were converted to relative values by regarding the obtained values of the saline instillation group (control) as 100%, and statistical analysis was performed by Wilcoxon test. Non-perfused area=area of avascular region/area of entire retina Neovascular area=area of neovascular region/area of entire retina

Compound	effect on VEGF-induced neovascularization [1]	effect on retinal neovascularization [2]	effect on endothelial cells in diabetic model rats (diabetic model rats)	relative value of the neovascular area (saline instillation group = 100%) [3]	relative value of the non-perfused area (saline instillation group = 100%) [3]
C[C@@H](N)[C@H]1CC[C@H](C(=O)Nc2ccncc2)CC1 [Y-27632]	effect of inhibiting VEGF-induced neovascularization	effect of suppressing retinal neovascularization			
O=S(=O)(c1cccc2cnccc12)N1CCCNCC1 [fasudil, reference compound]	effect of inhibiting VEGF-induced neovascularization		effect of protecting endothelial cells	102.2%	107.7%
